The target in series [1] is T1, Histone deacetylase 2 (Homo sapiens, UniProt Q92769). Put plainly: Inhibition of recombinant HDAC2 (unknown origin) using Boc-Lys(acetyl)-AMC as substrate preincubated for 1 hr followed by substrate addition and measured after 2 hrs by fluorescence based microplate reader analysis.
The target in another series is Histone deacetylase 4 (Homo sapiens, UniProt P56524). The series is described as follows: Inhibition of recombinant HDAC4 (unknown origin) using Boc-Lys (trifluoroacetyl) AMC as substrate preincubated for 1 hr followed by substrate addition and measured after 2 hrs by fluorescence based microplate reader analysis.
The nature of series [2]: Inhibition of HDAC11(unknown origin) preincubated for 1 hr followed by substrate addition and measured after 2 hrs by fluorescence based microplate reader analysis. The arrangement: species or system Homo sapiens.
The next series has as its target Histone deacetylase 1 (Homo sapiens, UniProt Q13547). The series is described as follows: Binding affinity to recombinant HDAC1 (unknown origin) assessed as inhibition constant using Boc-Lys(acetyl)-AMC as substrate preincubated for 1 hr followed by substrate addition and measured after 2 hrs by fluorescence based microplate reader analysis.
For series [3], the target named is T2, Protein deacetylase HDAC6 (Homo sapiens, UniProt Q9UBN7).
T2 sequence (Q9UBN7 whole entry): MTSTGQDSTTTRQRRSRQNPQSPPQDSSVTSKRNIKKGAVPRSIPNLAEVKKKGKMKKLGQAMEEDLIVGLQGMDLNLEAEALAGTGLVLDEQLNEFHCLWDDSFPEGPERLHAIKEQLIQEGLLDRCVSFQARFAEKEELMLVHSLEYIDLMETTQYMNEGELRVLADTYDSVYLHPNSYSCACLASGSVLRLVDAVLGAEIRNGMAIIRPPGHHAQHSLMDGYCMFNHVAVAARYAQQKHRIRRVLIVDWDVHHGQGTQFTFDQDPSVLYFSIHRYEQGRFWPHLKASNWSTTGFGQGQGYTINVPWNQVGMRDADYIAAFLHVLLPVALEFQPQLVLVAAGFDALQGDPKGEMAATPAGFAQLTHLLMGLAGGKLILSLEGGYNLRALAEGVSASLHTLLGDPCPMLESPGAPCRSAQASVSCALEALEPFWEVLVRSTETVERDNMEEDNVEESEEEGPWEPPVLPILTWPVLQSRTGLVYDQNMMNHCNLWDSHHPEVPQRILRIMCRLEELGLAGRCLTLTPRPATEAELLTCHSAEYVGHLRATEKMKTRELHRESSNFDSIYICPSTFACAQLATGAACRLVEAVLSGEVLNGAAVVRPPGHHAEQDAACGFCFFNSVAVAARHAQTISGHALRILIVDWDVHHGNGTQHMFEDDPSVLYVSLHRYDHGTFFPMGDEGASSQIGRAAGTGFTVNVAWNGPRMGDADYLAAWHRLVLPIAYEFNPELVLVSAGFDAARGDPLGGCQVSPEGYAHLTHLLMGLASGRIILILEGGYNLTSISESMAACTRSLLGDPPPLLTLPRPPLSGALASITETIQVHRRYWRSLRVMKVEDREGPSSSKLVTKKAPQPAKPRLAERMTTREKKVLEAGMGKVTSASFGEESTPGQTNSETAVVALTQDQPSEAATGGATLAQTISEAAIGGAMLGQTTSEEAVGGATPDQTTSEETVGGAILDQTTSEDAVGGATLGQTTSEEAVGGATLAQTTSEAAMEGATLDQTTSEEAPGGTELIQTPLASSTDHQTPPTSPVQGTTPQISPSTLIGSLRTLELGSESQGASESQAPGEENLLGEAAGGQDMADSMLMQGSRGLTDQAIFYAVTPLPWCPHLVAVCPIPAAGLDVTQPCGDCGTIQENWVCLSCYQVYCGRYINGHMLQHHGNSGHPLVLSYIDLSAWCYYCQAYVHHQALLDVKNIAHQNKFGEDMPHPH
Put plainly: Inhibition of recombinant HDAC6 (unknown origin) using Boc-Lys(acetyl)-AMC as substrate preincubated for 0 min followed by substrate addition and measured after 2 hrs by fluorescence based microplate reader analysis.

The target of series [4] is T2, Protein deacetylase HDAC6. The series is described as follows: Inhibition of recombinant HDAC6 (unknown origin) using Boc-Lys(acetyl)-AMC as substrate preincubated for 30 mins followed by substrate addition and measured after 2 hrs by fluorescence based microplate reader analysis.
Series [5] deals with T2, Protein deacetylase HDAC6. Put plainly: Inhibition of recombinant HDAC6 (unknown origin) using Boc-Lys(acetyl)-AMC as substrate preincubated for 60 mins followed by substrate addition and measured after 2 hrs by fluorescence based microplate reader analysis.
Series [6] is described as follows: Cmax in CD-1 mouse at 20 mg/kg, po measured after 0.083 to 24 hrs by LC-MS/MS analysis. Format: ADME, organism-based. Also on record: time 0.083-24 hrs, dose 20 mg/kg, route po. The conditions noted are these: in vivo.
A short description of series [7]: Half life in CD-1 mouse at 20 mg/kg, po measured after 0.083 to 24 hrs by LC-MS/MS analysis. The format is ADME, organism-based. The conditions noted are these: in vivo, time 0.083-24 hrs.
A short description of series [8]: AUC(0 to infinity) in CD-1 mouse at 5 mg/kg, iv measured after 0.083 to 24 hrs by LC-MS/MS analysis. The format is ADME, organism-based. Also on record: dose 5 mg/kg, time upper 24 hrs, time lower 0.083 hrs, route iv. The conditions noted are these: in vivo.
A short description of series [9]: Brain concentration in CD-1 mouse at 20 mg/kg measured after 0.5 hrs by LC-MS/MS analysis. The note with it: read-out: Ct. The format is ADME, organism-based.
Series [10] is described as follows: Ratio of drug concentration in brain to plasma of CD-1 mouse measured after 0.5 hrs by LC-MS/MS analysis. Format: ADME. The conditions noted are these: read-out: BPR.
Series [11] has as its system J774.A1. Put plainly: Inhibition of NLRP3 inflammasome activation in mouse J774.A1 cells assessed as cleavage of pro-caspase 1 to p20 measured at 5 to 20 microM after […] by Western blot analysis. Format: functional, cell-based. The conditions noted are these: dose 5-20 µM, DDE = dose-dependent effect.
The test system of series [12] is J774.A1. The series is described as follows: Inhibition of HDAC6/dynein interaction in mouse J774.A1 cells measured after 8 hrs by co-immunoprecipitation based Western blotting analysis. Format: cell-based. A general note: A western blot detects proteins with antibodies after separation by electrophoresis.
A short description of series [13]: Acute toxicity in LPS-induced endotoxic shock C57BL/6 mouse model assessed as effect on body weight at 500 mg/kg, po administered as single dose for 15 days. Format: organism-based. The note with it: in vivo, 360 h, time 15 day.
A further series relates to L02. Put plainly: Cytotoxicity against human HL7702 cells assessed as reduction in cell viability at 100 uM measured after 48 hrs by spectrophotometric analysis. The conditions noted are these: l02, 48 h. The format is toxicity, cell-based.
For a further series, the system named is NCM460. The series is described as follows: Cytotoxicity against human NCM460 cells assessed as reduction in cell viability at 100 uM measured after 48 hrs by spectrophotometric analysis. The format is toxicity, cell-based. The conditions noted are these: ncm460, 48 h.
Series [14] can be described thus: Plasma concentration in CD-1 mouse at 20 mg/kg measured after 1 hrs by LC-MS/MS analysis. The format is ADME, organism-based.
The nature of series [15]: Ratio of drug concentration in brain to plasma of CD-1 mouse measured after 1 hrs by LC-MS/MS analysis. The format is ADME.
Series [16] can be described thus: Ratio of drug concentration in brain to plasma of CD-1 mouse measured after 4 hrs by LC-MS/MS analysis. The format is ADME. The conditions noted are these: read-out: BPR.
The target of series [17] is T1, Histone deacetylase 2. Put plainly: Binding affinity to recombinant HDAC2 (unknown origin) assessed as inhibition constant using Boc-Lys(acetyl)-AMC as substrate preincubated for 1 hr followed by substrate addition and measured after 2 hrs by fluorescence based microplate reader analysis.
The target in another series is Histone deacetylase 3 (Homo sapiens, UniProt O15379). Put plainly: Binding affinity to recombinant HDAC3 (unknown origin) assessed as inhibition constant using Boc-Lys(acetyl)-AMC as substrate preincubated for 1 hr followed by substrate addition and measured after 2 hrs by fluorescence based microplate reader analysis.

Each structure is given as a SMILES string. Activity calls are given as the source filed them. The calls are words filed in the database; no cut-off is given here.

T1 sequence (Q92769 whole entry): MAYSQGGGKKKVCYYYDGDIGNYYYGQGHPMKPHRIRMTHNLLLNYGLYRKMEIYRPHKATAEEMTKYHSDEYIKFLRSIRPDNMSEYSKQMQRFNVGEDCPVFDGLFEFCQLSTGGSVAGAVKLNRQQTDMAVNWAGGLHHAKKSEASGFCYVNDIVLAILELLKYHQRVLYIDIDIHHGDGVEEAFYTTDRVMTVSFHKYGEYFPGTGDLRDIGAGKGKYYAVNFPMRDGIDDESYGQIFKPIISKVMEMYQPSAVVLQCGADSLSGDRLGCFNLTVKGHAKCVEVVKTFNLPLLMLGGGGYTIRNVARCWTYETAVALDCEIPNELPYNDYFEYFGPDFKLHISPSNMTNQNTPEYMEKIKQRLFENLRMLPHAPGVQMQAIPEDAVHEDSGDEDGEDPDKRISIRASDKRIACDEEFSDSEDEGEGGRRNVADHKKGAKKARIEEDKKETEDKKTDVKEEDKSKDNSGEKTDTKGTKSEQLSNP
Sequence of Histone deacetylase 4 (P56524 whole entry): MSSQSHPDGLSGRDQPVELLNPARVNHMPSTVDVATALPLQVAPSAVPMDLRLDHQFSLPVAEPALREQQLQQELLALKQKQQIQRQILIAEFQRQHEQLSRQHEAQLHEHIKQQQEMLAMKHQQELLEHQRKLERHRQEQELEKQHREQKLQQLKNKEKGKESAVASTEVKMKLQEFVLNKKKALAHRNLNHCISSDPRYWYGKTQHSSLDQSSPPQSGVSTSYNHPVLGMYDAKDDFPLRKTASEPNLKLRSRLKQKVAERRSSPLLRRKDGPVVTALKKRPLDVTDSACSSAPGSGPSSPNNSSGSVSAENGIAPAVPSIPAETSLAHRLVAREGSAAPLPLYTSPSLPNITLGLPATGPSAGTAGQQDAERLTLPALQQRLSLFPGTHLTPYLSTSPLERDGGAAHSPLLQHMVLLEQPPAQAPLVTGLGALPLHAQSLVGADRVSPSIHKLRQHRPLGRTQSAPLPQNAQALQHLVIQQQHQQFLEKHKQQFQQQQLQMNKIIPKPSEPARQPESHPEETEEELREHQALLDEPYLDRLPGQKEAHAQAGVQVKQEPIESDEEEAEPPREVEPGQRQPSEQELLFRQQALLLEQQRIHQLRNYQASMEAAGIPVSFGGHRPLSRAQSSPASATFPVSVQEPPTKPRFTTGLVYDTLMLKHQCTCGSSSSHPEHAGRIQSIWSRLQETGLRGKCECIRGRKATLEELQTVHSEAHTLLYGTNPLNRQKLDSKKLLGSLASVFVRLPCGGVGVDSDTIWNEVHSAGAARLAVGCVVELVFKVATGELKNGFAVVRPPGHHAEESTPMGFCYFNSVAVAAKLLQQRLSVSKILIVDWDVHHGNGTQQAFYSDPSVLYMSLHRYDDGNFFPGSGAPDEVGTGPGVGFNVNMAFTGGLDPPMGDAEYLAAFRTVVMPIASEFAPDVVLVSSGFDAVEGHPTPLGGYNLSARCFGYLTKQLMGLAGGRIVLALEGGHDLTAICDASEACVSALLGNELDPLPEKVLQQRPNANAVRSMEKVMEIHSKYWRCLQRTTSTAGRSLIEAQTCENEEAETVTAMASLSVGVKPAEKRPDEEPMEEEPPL
Sequence of Histone deacetylase 3 (O15379 whole entry): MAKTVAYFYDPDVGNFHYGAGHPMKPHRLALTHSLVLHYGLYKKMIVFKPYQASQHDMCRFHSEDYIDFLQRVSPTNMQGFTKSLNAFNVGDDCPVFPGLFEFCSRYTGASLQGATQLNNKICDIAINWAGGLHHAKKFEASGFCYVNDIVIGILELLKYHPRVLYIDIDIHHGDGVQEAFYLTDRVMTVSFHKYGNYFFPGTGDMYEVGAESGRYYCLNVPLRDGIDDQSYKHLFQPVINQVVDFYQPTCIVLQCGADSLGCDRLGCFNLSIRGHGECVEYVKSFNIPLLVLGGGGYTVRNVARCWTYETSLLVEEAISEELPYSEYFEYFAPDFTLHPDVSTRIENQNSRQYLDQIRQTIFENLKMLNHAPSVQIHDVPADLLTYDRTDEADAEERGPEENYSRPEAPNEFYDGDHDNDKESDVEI
Sequence of Histone deacetylase 1 (Q13547 whole entry): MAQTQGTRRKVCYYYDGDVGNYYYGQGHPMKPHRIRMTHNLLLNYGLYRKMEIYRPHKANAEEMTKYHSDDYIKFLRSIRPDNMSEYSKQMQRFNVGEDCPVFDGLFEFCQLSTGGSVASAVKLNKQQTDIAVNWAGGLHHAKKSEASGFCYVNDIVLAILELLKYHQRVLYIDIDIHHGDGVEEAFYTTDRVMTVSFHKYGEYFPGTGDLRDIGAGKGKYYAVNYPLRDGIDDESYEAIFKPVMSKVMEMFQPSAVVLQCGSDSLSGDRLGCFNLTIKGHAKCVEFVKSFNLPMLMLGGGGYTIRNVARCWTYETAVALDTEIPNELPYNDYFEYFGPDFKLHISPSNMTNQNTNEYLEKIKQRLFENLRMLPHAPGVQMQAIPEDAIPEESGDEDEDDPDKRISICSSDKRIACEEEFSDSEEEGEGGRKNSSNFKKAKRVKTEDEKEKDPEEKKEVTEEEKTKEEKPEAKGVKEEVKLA

What is called IC50 is the concentration that inhibits the measured activity by half. What is called Ki is a measure of affinity in units of concentration, obtained from inhibition or displacement. In general, Cmax refers to the highest concentration seen after dosing. In general, half-life refers to the time in which the quantity being followed falls by half. Higher therefore signals slow loss. One may read the AUC(0-inf) as total exposure, with the tail of the curve extrapolated. Low readings indicate less exposure, high ones more exposure. As for `CCNNC(=O)c1ccc(CN2c3ccccc3C=Cc3ccncc32)cc1`, the IC50 on Histone deacetylase 2 [1] was 2060 nM; at Histone deacetylase 4 it was more than 5000 nM; in [2] it was more than 5000 nM; in series [3] it was 461 nM; in series [4] it was 31.7 nM; in series [5], 32.5 nM. In addition, the results for the Ki at Histone deacetylase 1, at Histone deacetylase 2 [17] and on Histone deacetylase 3 were 875 nM, 1040 nM and 430 nM, respectively. Besides, the Cmax in series [6] turned out to be 5570 ng/mL. Also, the half-life in series [7] is 6.8 h. This molecule came in with an AUC(0-inf) in [8] of 2760 ng·h/mL. Further, the concentration at 0.5 h in [9] turned out to be 11300 ng/mL. Moreover, the Kp at 0.5 h in [10] was 1.45. The Activity result was “Dde” in the series on J774.A1 [11], “Non-Toxic” in series [13], “Non-Toxic” with L02 and “Non-Toxic” in the series on NCM460. Besides, the inhibition entry in the series on J774.A1 [12] is “Active”. In addition, the concentration at 1 h in series [14] stood at 5880 ng/mL. In addition, the Kp at 1 h in [15] was determined as 1.26. Further, in [16], the Kp at 4 h was 1.51.

The values above are taken from ChEMBL document CHEMBL5113527, “First-in-Class Hydrazide-Based HDAC6 Selective Inhibitor with Potent Oral Anti-Inflammatory Activity by Attenuating NLRP3 Inflammasome Activation” (J Med Chem, 2022).
